# Data reported in patent publication US20250025438A1, “Derivative of aspartic acid and use thereof in treatment of metabolic diseases such as hepatic fibrosis and non-alcoholic hepatitis” (SHENZHEN JINGTAI TECHNOLOGY CO., LTD., priority 2021, published 2025).
# Where a name gives a salt, the structure may show the parent alone. Where a SMILES comes first, the peptide text is derived from it.
# Key:
# Type in all cases: cell-based
# α-SMA = assay: In vitro efficacy in semi-activated LX2 cells, qPCR: α-SMA; details: 48 hours, Q-PCR; for inhibition at 100 µM: test concentration 100 μM; for inhibition at 100 µM / inhibition at 50 µM / inhibition at 12.5 µM: read-out: α-SMA mRNA inhibition rate; for inhibition of the expression of α-SMA at the mRNA level: Table 2
# Experimental: (§1) Test compounds were added to the LX-2 cells respectively, and total RNA in the cells was extracted 48 hours later. This experiment was performed strictly in accordance with the instructions of the Total RNA Kit. The steps were as follows (note: this experiment was performed on ice throughout the entire process, and special RNase-free tips were used throughout the entire process): • 1) The 12-well cell culture plate was taken out from the incubator, the cell culture medium was discarded, the cells were washed twice with 1 mL of 1×PBS, and a negative pressure suction device was used to fully remove PBS; • 2) 350 μL of TRK Lysis Buffer mixture/well was prepared as needed (mixture preparation method: 1 mL of TRKLysis Buffer+20 μL of β-mercaptoethanol), vortexed and mixed well. 350 μL was added to each well of the 12-well cell culture plate, and allowed to stand at room temperature for 5 minutes to fully lyse the cells; • 3) 70% ethanol/well was prepared as needed, vortexed and mixed well. 350 μL was added to each well of the 12-well cell culture plate, mixed well by shaking, and transferred to the spin column (spin column+collection tube were assembled); • 4) Centrifugation was performed at 4° C., 12000 g for 60 sec. The waste liquid was discarded after centrifugation, while the spin column was kept; • 5) 500 μL of RNA Wash Buffer I was added, centrifuged at 4° C., 12000 g for 60 sec, the waste liquid was discarded after centrifugation, and the collection column was kept; • 6) 500 μL of RNA Wash Buffer II (confirmed that ethanol had been added) was added, centrifuged at 4° C., 12000 g for 60 sec, the waste liquid was discarded after centrifugation, and the collection column was kept; • 7) step 6) was repeated once again, centrifugation was performed at 4° C., 12000 g for 90 sec, the waste liquid was discarded after centrifugation, and the collection column was kept; • 8) Centrifugation was performed at 4° C., 12000 g for 120 sec to ensure that the spin column was fully dried; • 9) The dried spin column was inserted into a new 1.5 mL EP tube, and 30 μL of DEPC water was added to the membrane in the center of the spin column. It should be careful not to touch the EP tube cover in this step. It was allowed to stand at room temperature for 5 minutes to ensure that the RNA was fully dissolved in DEPC water. Centrifugation was performed at 4° C., 12000 g for 60 sec, and the EP tube was kept; • 10) NanoDrop ultra-micro-volume spectrophotometer was used to detect RNA concentration;
# (§2) 5.2 Reverse transcription of RNA into cDNA: According to the instructions of PrimeScript™ RT reagent Kit (Perfect Real Time), the specific experimental steps were as follows:
# (§3) 5.3 Q-PCR detection of target gene expression: According to the instructions of Power SYBR® Green PCR Master Mix, the specific operations were as follows:
# (§4) After the reaction was completed, the amplification curve and dissolution curve of Q-PCR were confirmed, and the relative quantification method ([…]) was used to perform data analysis on the experimental results.
# (§5) LX2 cells were passaged and plated normally. […] After 48 hours, the cells were collected, total RNA was extracted, and Q-PCR was used to detect the changes in the mRNA expression levels of liver fibrosis-related genes (ACTA2 encoding α-SMA, COL1A1 and COLIA2 encoding collagen I, COL3A1 encoding collagen III, SMAD3 encoding Smad3) and inflammation-related genes (IL1β encoding IL-1β, TNFα encoding TNFα) (for specific methods, see 5. Q-PCR detection of target gene expression as described above). α-SMA was a marker of hepatic stellate cell activation, and collagen I and collagen III were the main components of extracellular matrix deposition.
# [1] = system: collagen I and collagen III; assay: Semi-activated LX2 cells, qPCR: collagen I and collagen III at the mRNA level; details: 48 hours, Q-PCR, Table 2
# Experimental: as §1, §3
# LX2 cells were passaged and plated normally. After adherent growth for 12 hours, 50 µM of the test compound was added. After 48 hours, the cells were collected, total RNA was extracted, and Q-PCR was used to detect the changes in the mRNA expression levels of liver fibrosis-related genes (ACTA2 encoding α-SMA, COL1A1 and COLIA2 encoding collagen I, COL3A1 encoding collagen III, SMAD3 encoding Smad3) and inflammation-related genes (IL1β encoding IL-1β, TNFα encoding TNFα) (for specific methods, see 5. Q-PCR detection of target gene expression as described above). α-SMA was a marker of hepatic stellate cell activation, and collagen I and collagen III were the main components of extracellular matrix deposition. […]
# COL3A1 = assay: In vitro efficacy in semi-activated LX2 cells, qPCR: COL3A1; details: 48 hours, Q-PCR; for inhibition at 100 µM: LX-2, test concentration 100 μM; for inhibition at 50 µM: LX-2, 50 µM; for inhibition at 12.5 µM: LX-2, test concentration 12.5 μM
# Experimental: as §1, §2, §3, §4, §5
# COL1A1 = assay: In vitro efficacy in semi-activated LX2 cells, qPCR: COL1A1; details: 48 hours, Q-PCR; for inhibition at 100 µM: LX-2, test concentration 100 μM; for inhibition at 50 µM: LX-2, 50 µM; for inhibition at 12.5 µM: LX-2, test concentration 12.5 μM
# Experimental: as §1, §2, §3, §4, §5
# Smad3 = assay: In vitro efficacy in semi-activated LX2 cells, qPCR: Smad3; details: 48 hours, Q-PCR; for inhibition at 50 µM: LX-2, 50 µM
# Experimental: as §1, §2, §3, §4, §5
# IL-1β = assay: In vitro efficacy in semi-activated LX2 cells, qPCR: IL-1β; details: 48 hours, Q-PCR
# Experimental: as §1, §2, §3, §4, §5
# [2] = Homo sapiens, read-out: COL3A1 mRNA inhibition rate
# [3] = Homo sapiens, read-out: COL1A1 mRNA inhibition rate
# [4] = Homo sapiens, read-out: Smad3 mRNA inhibition rate
smiles,measurement,setting,value
"COC(=O)C[C@H](N)C(=O)OCOC(=O)C[C@H](N)C(=O)OC.Cl [Compound 74, 4-((((S)-2-amino-4-methoxy-4-oxobutyryl)oxy)methyl)1-methyl L-aspartic acid ester hydrochloride]",inhibition at 100 µM,α-SMA,25 to 50%
same,inhibition of the expression of collagen I and collagen III at the mRNA level,[1],could inhibit
same,inhibition at 100 µM,COL3A1; [2],25 to 50%
same,inhibition at 100 µM,COL1A1; [3],25 to 50%
COC(=O)[C@H](Cc1ccccc1)NC(=O)C[C@H](N)C(=O)O [Compound 32],inhibition at 50 µM,α-SMA,1 to 10%
same,inhibition at 50 µM,COL3A1; [2],1 to 10%
same,inhibition at 50 µM,COL1A1; [3],10 to 25%
"CC(C)OC(=O)C[C@H](N)C(=O)OCOC(=O)[C@@H](N)CC(=O)OC(C)C [Compound 73, 4-diisopropyl O′1,O1-methylene (2S,2'S)-bis (2-aminosuccinate) hydrochloride]",inhibition of the expression of α-SMA at the mRNA level,α-SMA,could inhibit
same,inhibition at 12.5 µM,α-SMA; test concentration 12.5 μM,10 to 25%
"CCC(=O)N[C@@H](CC(=O)O)C(=O)OC [Compound 66, 1-methyl propionyl-L-aspartic acid ester]",inhibition of the expression of collagen I and collagen III at the mRNA level,[1],could inhibit
same,inhibition at 50 µM,COL1A1; [3],25 to 50%
"COC(=O)C[C@H](NC(=O)[C@H](C)N)C(=O)O [Compound 67, (S)-2-((S)-2-aminopropionamido)-4-methoxy-4-oxobutyric acid hydrochloride] (HELM PEPTIDE1{A.D}|CHEM1{[CO[*:1]]}$PEPTIDE1,CHEM1,2:R3-1:R1$$$V2.0)",inhibition at 50 µM,COL3A1; [2],1 to 10%
N[C@@H](CC(=O)O)C(=O)OCc1ccccc1 [Compound 20],α-SMA mRNA inhibition rate,α-SMA; test concentration 12.5 μM,E (E represented that the inhibition rate was 1% to 10%)
same,COL3A1 mRNA inhibition rate,COL3A1; test concentration 12.5 μM,E (E represented that the inhibition rate was 1% to 10%)
same,Smad3 mRNA inhibition rate,Smad3; test concentration 12.5 μM,E (E represented that the inhibition rate was 1% to 10%)
same,COL1A1 mRNA inhibition rate,COL1A1; test concentration 12.5 μM,E (E represented that the inhibition rate was 1% to 10%)
COC(=O)[C@H](CC(=O)O)NC(=O)OCC1c2ccccc2-c2ccccc21 [Compound 5],inhibition at 50 µM,"IL-1β; Homo sapiens, LX-2, 50 µM, read-out: IL-1β mRNA inhibition rate",1 to 10%
"COC(=O)[C@H](CC(=O)O)NC(C)=O [Compound 65, 1-methyl acetyl-L-aspartic acid ester]",inhibition at 12.5 µM,α-SMA; test concentration 12.5 μM,1 to 10%
same,inhibition at 12.5 µM,COL3A1; [2],1 to 10%
same,inhibition at 12.5 µM,COL1A1; [3],10 to 25%
"CCOC(=O)C[C@H](N)C(=O)OCOC(=O)[C@@H](N)CC(=O)OC [Compound 70, 1-((((S)-2-amino-4-ethoxy-4-oxobutyryl)oxy)methyl) 4-methyl L-aspartic acid ester hydrochloride]",inhibition of the expression of α-SMA at the mRNA level,α-SMA,could inhibit
same,inhibition at 100 µM,α-SMA,50 to 75%
same,inhibition of the expression of collagen I and collagen III at the mRNA level,[1],could inhibit
same,inhibition at 100 µM,COL3A1; [2],10 to 25%
same,inhibition at 100 µM,COL1A1; [3],1 to 10%
COC(=O)C[C@H](N)C(=O)OC.Cl [Compound 7],IL-1β mRNA inhibition rate,IL-1β; test concentration 25 μM,E (E represented that the inhibition rate was 1% to 10%)
N[C@@H](CC(=O)NC(c1ccccc1)(c1ccccc1)c1ccccc1)C(=O)O [Compound 27],inhibition at 50 µM,Smad3; [4],1 to 10%
"N[C@@H](CC(=O)O)C(=O)OCOC(=O)[C@@H](N)CC(=O)O [Compound 57, (3S,3'S)-4,4′-(methylenebis (oxy))bis (3-amino-4-oxobutyric acid) hydrochloride]",inhibition at 25 µM,"Smad3; Homo sapiens, LX-2, test concentration 25 μM, read-out: Smad3 mRNA inhibition rate",1 to 10%
"COC(=O)C[C@H](N)C(=O)OCOC(=O)[C@@H](N)CC(=O)OC(C)C [Compound 71, 1-((((S)-2-amino-4-isopropoxy-4-oxobutyryl)oxy)methyl) 4-methyl L-aspartic acid ester hydrochloride]",inhibition of the expression of collagen I and collagen III at the mRNA level,[1],could inhibit
same,inhibition at 12.5 µM,COL3A1; [2],1 to 10%
same,inhibition at 12.5 µM,COL1A1; [3],10 to 25%
N[C@H](C(=O)O)[C@@H](N)C(=O)O [Compound 43],inhibition at 50 µM,α-SMA,1 to 10%
same,inhibition at 50 µM,COL3A1; [2],1 to 10%
same,inhibition at 50 µM,Smad3; [4],1 to 10%
CC(C)(C)OC(=O)N[C@@H](CC(=O)O)C(=O)OCc1ccccc1 [Compound 21],inhibition at 50 µM,α-SMA,1 to 10%
same,inhibition of the expression of collagen I and collagen III at the mRNA level,[1],could inhibit
same,inhibition at 50 µM,COL3A1; [2],10 to 25%
same,inhibition at 50 µM,Smad3; [4],1 to 10%
same,inhibition at 50 µM,COL1A1; [3],1 to 10%
CC(C)(C)OC(=O)N[C@@H](CC(=O)OCc1ccccc1)C(=O)O [Compound 24],inhibition at 50 µM,COL3A1; [2],1 to 10%
same,inhibition at 50 µM,COL1A1; [3],1 to 10%
C[C@@H](NC(=O)[C@@H](N)CC(=O)O)C(=O)NC1C(C)(C)SC1(C)C [Compound 38],inhibition of the expression of collagen I and collagen III at the mRNA level,[1],could inhibit
same,inhibition at 50 µM,COL3A1; [2],1 to 10%
same,inhibition at 50 µM,COL1A1; [3],25 to 50%
"CCOC(=O)C[C@H](N)C(=O)O [Compound 35, 4-ethyl L-aspartic acid ester]",inhibition of the expression of collagen I and collagen III at the mRNA level,[1],could inhibit
same,inhibition at 50 µM,COL3A1; [2],1 to 10%
same,inhibition at 50 µM,COL1A1; [3],10 to 25%
"COC(=O)C[C@H](NC(C)=O)C(=O)O [Compound 63, 4-methyl acetyl-L-aspartic acid ester]",inhibition at 50 µM,α-SMA,1 to 10%
same,inhibition of the expression of collagen I and collagen III at the mRNA level,[1],could inhibit
same,inhibition at 50 µM,COL3A1; [2],10 to 25%
"CC(C)OC(=O)OCOC(=O)[C@@H](N)CC(=O)O [Compound 51, 1-(((isopropoxycarbonyl)oxy)methyl) L-aspartic acid ester hydrochloride]",inhibition at 50 µM,α-SMA,1 to 10%
"COC(=O)C[C@H](N)C(=O)OC(C)OC(=O)[C@@H](N)CC(=O)OC [Compound 68, O′1,O1-(ethan-1,1-diyl)4-dimethyl (2S,2'S)-bis (2-aminosuccinate) hydrochloride]",inhibition of the expression of α-SMA at the mRNA level,α-SMA,could inhibit
same,inhibition at 100 µM,α-SMA,25 to 50%
same,inhibition at 100 µM,COL3A1; [2],1 to 10%
same,inhibition at 100 µM,COL1A1; [3],1 to 10%
"CCOC(=O)C[C@H](N)C(=O)OCOC(=O)[C@@H](N)CC(=O)OCC [Compound 72, hydrochloride]",inhibition of the expression of collagen I and collagen III at the mRNA level,[1],could inhibit
same,inhibition at 25 µM,"COL3A1; Homo sapiens, LX-2, test concentration 25 μM, read-out: COL3A1 mRNA inhibition rate",25 to 50%
same,inhibition at 25 µM,"COL1A1; Homo sapiens, LX-2, test concentration 25 μM, read-out: COL1A1 mRNA inhibition rate",25 to 50%
"O=C(O)C[C@H](NC(=O)C1CC1)C(=O)O [Compound 60, (cyclopropylcarbonyl)-L-aspartic acid]",inhibition at 50 µM,α-SMA,1 to 10%
same,inhibition at 50 µM,Smad3; [4],1 to 10%
COC(=O)[C@H](CC(=O)O)NC(=O)OCc1ccccc1 [Compound 25],inhibition at 50 µM,α-SMA,1 to 10%
same,inhibition at 50 µM,COL1A1; [3],1 to 10%
